These are literature values, as cited in US11382901B2, “Tropicamide-based ophthalmic formulations” (FOR HEALTH PHARMA S.R.L., priority 2017, dated 2022).

The test system of series [1] is RAW 264.7 cells (murine macrophage-like).
Series [2] concerns NIH/3T3 cells (murine fibroblasts).

Regarding tyloxapol, the in vitro toxicity result in series [1] and in series [2] was “considerable in vitro toxicity” in each case.
